BigSolDB 2.1

O=C(O)[C@@H]1CSCN1
solubility (mole fraction)
Settings	in 1,4-dioxane	in acetone	in acetonitrile	in dichloromethane	in ethanol	in ethyl acetate	in isopropanol	in methanol	in water
283.15 K	–	0.00018	2.2e-05	1.5e-05	9e-05	2.3e-05	3.7e-05	5.5e-05	0.00296
288.15 K	0.00035	–	–	5.1e-05	–	–	–	–	–
293.15 K	0.000384	0.000298	3e-05	0.000134	0.000125	7.2e-05	6.8e-05	7.4e-05	0.00383
298.15 K	–	–	–	0.000208	–	–	–	–	–
303.15 K	0.000477	0.000537	4.8e-05	0.000292	0.00018	0.000158	9.8e-05	0.000112	0.00502
313.15 K	0.000589	0.00135	6.8e-05	–	0.000254	0.000297	0.000127	0.000209	0.0062
323.15 K	0.000708	0.00343	9.1e-05	–	0.000348	0.000471	0.00019	0.000315	0.00773
